# Reference: patent US7838557B2, “Concentrated X-ray contrast media can act as universal antigens and can inhibit or prevent allergic reactions” (priority 2001, dated 2010)
# Experiments:
# [1] = test system: IgG anti-γ-globulin; experiment: Passive red blood cell hemagglutination inhibition, γ-globulin vs. anti-γ-globulin; type: binding; settings: γ-globulin bound to sheep RBC; incubation 2-3 hours at room temperature
# From the text: Employing a highly sensitive test for antibody-antigen complexing (passive red blood cell hemagglutination inhibition), we found what we consider the answer to this problem. Ovalbumin and gamma globulin (Sigma) were bound to glutaraldehyde stabilized sheep red blood cells (Inter-Cell Technologies, Hopewell, N.J.). Bis-diazotized benzidine was used to bind the ovalbumin to the RBC's. The gamma-globulin bound directly. In both the case of the ovalbumin and the gamma-globulin, the sensitized red blood cells were allowed to incubate with each of the contrast media (methylglucamine iothalamate [CONRAY; 282 mg iodine/ml, Mallinckrodt Medical, St. Louis Mo.], ioversol [[…] 320; 320 mg iodine/ml, […]; 320 mg iodine/ml, Mallinckrodt] and […]; 300 mg iodine/ml, Schering Pharmaceutical; […] When competition occurred, there would be a diminished diameter of the agglutination, depending on the antibody titer that could be compared to a control, where saline was substituted for the CM. With complete competition (inhibition), no agglutination would be visible and the RBCs would form a small button of cells at the bottom of the microtiter well. Visible agglutination was evaluated on a 1+ to 4+ basis. Studies were also carried out where the RBCs were incubated with CM before or after binding of the antigen to BDB or the RBC to determine whether competition of the CM with the antigen might actually represent displacement of the […] from the RBC surface. It was discovered that contrast media can in fact act as an antigen and combine with antibodies ([…]. and […]., Academic Radiology 1998, 5 (suppl. 1; […]-[…])). This was shown when, at various concentrations, individual contrast media would inhibit the agglutination of RBC-attached ovalbumin or RBC-attached gamma globulin in the presence of their respective antibodies, thus resulting in a button of cells, rather than agglutination, in the bottom of the microtiter well.
# [2] = test system: Brown Norway Rats; experiment: Mean arterial blood pressure after i.v. contrast media injection, Brown Norway rats; type: in vivo; settings: mean ± S.E.
# [3] = test system: Sprague Dawley Rats; experiment: Mean arterial blood pressure after i.v. contrast media injection, Sprague Dawley rats; type: in vivo; settings: mean ± S.E.
# [4] = test system: ovalbumin-sensitized Sprague Dawley rats; experiment: Blood pressure in ovalbumin anaphylaxis of ovalbumin-sensitized rats; type: in vivo; settings: CM i.v. 6 hours before, 45 minutes before, concurrently, or 10 minutes after 10 mg ovalbumin
# Method: To further substantiate the concept that contrast media, acting as pseudoantigens, could interfere with existing antigen-antibody reactions, an experiment was conducted where a series of rats were sensitized to ovalbumin and later challenged the rats by intravenous injections of ovalbumin.
# Varying CM or other materials were injected into the tail vein of anesthetized Sprague Dawley rats ([…]). The CM tested were IOXAGLATE and IODIXANOL. Both are CM dimers and IOXAGLATE is ionic and IODIXANOL is nonionic. The CM injections were done 12 to 14 days after sensitization of the rats by intraperitoneal injections of 1 mg of ovalbumin in normal saline. A Propaq blood pressure apparatus was connected to polyethylene catheters inserted into a carotid artery to monitor mean arterial blood pressure. Injection rates were 6 ml/kg/min. The CM were injected I.V. either 6 hours before, 45 minutes before, concurrent with, or 10 minutes post challenge of a dose of 10 mg of ovalbumin. Saline injections, equiosmolar to the CM and injected at the same time intervals served as controls.
# [5] = test system: ragweed pollen sensitized rats; experiment: Experimental allergic conjunctivitis, ragweed pollen sensitized rats; type: in vivo, Sprague-Dawley rats
# From the text: In this Example, the potential protective effect of a contrast material on experimental allergic conjunctivitis induced in rats was examined. The rats were sensitized systemically to either ovalbumin or ragweed pollen and 10 to 12 days later obtained local sensitization by several applications of the respective antigens to the eyes. The rats were then challenged with a larger dose of the antigen accompanied by either the contrast media or equiosmolal saline and sacrificed at several different time periods for examination of the excised eyes.
# The tissues were examined on a “blinded” basis and assigned a 0 to 3+ rating based on the perceived abundance of inflammatory cells (mostly lymphocytes, but also including eosinophils, polymorphonuclear leukocytes, and mast cells). The ovalbumin experiment was carried out at 3 hours post antigen application (8 rats) and at 24 hours post application (8 rats) and the ragweed study was carried out at 1 hour post application (8 rats) and at 24 hours post application (8 rats). The cumulative scores for the ratings in each set of rats were recorded. Details of the ovalbumin study are as follows.
# A ragweed pollen experiment also involved 16 Sprague-Dawley rats born approximately 2 months previously and sensitized on Day 1 with SQ injections of 0.1 ml of N. saline containing 100 μg of ragweed pollen (P-0146, Sigma) and 20 mg alum. On Day 14, 20 μl of saline (left eye) or 20 μl of IODIXANOL (right eye) were applied to the eyes. 15 min. later, both eyes were treated with 10 μl of phosphate buffered saline containing 1.5 mg of ragweed pollen. The process was done 4 times at 15 min. intervals.
# [6] = test system: Brown-Norway and Sprague Dawley rats; experiment: Blood pressure changes in rats after H-1 blocker, L-NAME or contrast media (text and FIGS. 4A-4B); type: in vivo
# [7] = test system: rats injected intradermally with serum from ovalbumin sensitized rats; experiment: Passive cutaneous anaphylaxis (PCA), Evans Blue extravasation; type: in vivo; settings: for Stain (mm ± S.E./10): 50 μl sensitized serum
# Method: In a further test of the ability of appropriate contrast media to mitigate ongoing antigen-antibody reactions, a passive cutaneous anaphylaxis (PCA) experiment was performed in rats.
# In this Example, rats were injected intradermally with 50 μL of serum from ovalbumin sensitized rats and varying mixtures of Na/meglumine iothalamate (MD-76; 370 mg iodine/ml, Mallinckrodt) and normal saline to a total of 50 μl. This was followed in 5-7 hours by intravenous injections of 1 mg ovalbumin along with Evans Blue and then measurement of the subsequent extravasation of the blue coloring in the area under the skin. Evans Blue binds to serum albumin and the diameter of the area of blue indicates extravasation of albumin secondary to specific antigen-antibody reactions. […] In this case, where large amounts of CM are available due to local deposition, even an ionic monomer was sufficient to block specific antibody-antigen reactivity (see Table III below).
molecule,measurement,setting,value
"CNC(=O)c1c(I)c(NC(C)=O)c(I)c(C(=O)O)c1I.CNC[C@H](O)[C@@H](O)[C@H](O)[C@H](O)CO [Conray, methylglucamine iothalamate]",Lowest concentration of CM showing a 2+ or 3+ inhibition of 1/500 IgG anti-γ-globulin,[1],28.2 mg/mL
same,Net decrease in mean arterial blood pressure,[2]; Monomers (4 ml),decrease (37 ± 1.6) (3) mm Hg
same,Net decrease in mean arterial blood pressure,[3]; Monomers (4 ml),decrease (55 ± 5.0) (3) mm Hg
"CNC(=O)c1c(I)c(C(=O)NCC(=O)Nc2c(I)c(C(=O)O)c(I)c(C(=O)NCCO)c2I)c(I)c(N(C)C(C)=O)c1I [HEXABRIX, IOXAGLATE]",Lowest concentration of CM showing a 2+ or 3+ inhibition of 1/500 IgG anti-γ-globulin,[1],8.0 mg/mL
same,Net increase in mean arterial blood pressure,[2]; Dimers (8 ml),increase (31 ± 4.6) (3) mm Hg
same,"Return of blood pressure after ovalbumin challenge, compared with equiosmolar saline",[4],more rapid return of the blood pressure to normal levels
CC(=O)N(CC(O)CN(C(C)=O)c1c(I)c(C(=O)NCC(O)CO)c(I)c(C(=O)NCC(O)CO)c1I)c1c(I)c(C(=O)NCC(O)CO)c(I)c(C(=O)NCC(O)CO)c1I (centres unmarked) [IODIXANOL],"Return of blood pressure after ovalbumin challenge, compared with equiosmolar saline",[4],more rapid return of the blood pressure to normal levels
same,Cumulative score of inflammatory cell infiltration (0 to 3+ rating per eye),"[5]; 1 HOUR READING, 20 μl applied to the eye before ragweed pollen, 8 rats",0
same,Protection against ragweed pollen conjunctivitis (in words),[5]; local application,provides a degree of protection
same,Number of zero scores in the group,"[5]; no absolute zeros in the saline group, study (ragweed or combined) not specified",3
"CN(C(=O)CC(=O)N(C)c1c(I)c(C(=O)NC(CO)C(O)CO)c(I)c(C(=O)NC(CO)C(O)CO)c1I)c1c(I)c(C(=O)NC(CO)C(O)CO)c(I)c(C(=O)NC(CO)C(O)CO)c1I (centres unmarked) [ISOVIST, IOTROLAN]",Lowest concentration of CM showing a 2+ or 3+ inhibition of 1/500 IgG anti-γ-globulin,[1],14.0 mg/mL
same,Net increase in mean arterial blood pressure,[2]; Dimers (4 ml),increase (18 ± 0.00 (1) mm Hg
same,Net increase in mean arterial blood pressure,[2]; Dimers (8 ml),increase (20 ± 2.0) (4) mm Hg
same,Net increase in mean arterial blood pressure,[3]; Dimers (8 ml),increase (11 ± 4.6) (3) mm Hg
same,Change in blood pressure (in words),[6]; production of nitric oxide blocked by L-NAME,can no longer produce an elevation in blood pressure
same,Change in blood pressure (in words),[6]; substance injected by itself,produces an elevation in pressure
"C[C@H](O)C(=O)Nc1c(I)c(C(=O)NC(CO)CO)c(I)c(C(=O)NC(CO)CO)c1I [Isovue, IOPAMIDOL]",Net decrease in mean arterial blood pressure,[2]; Monomers (8 ml),decrease (36 ± 8.6) (2) mm Hg
same,Net decrease in mean arterial blood pressure,[3]; Monomers (8 ml),decrease (27 ± 8.6) (2) mm Hg
"COC(=O)[C@@H](N)CCCNC(=N)N[N+](=O)[O-] [L-NAME, NG-nitro-L-arginine methyl ester]",Change in blood pressure (in words),[6]; substance injected by itself,immediate elevation in blood pressure
CNC(=O)c1c(I)c(NC(C)=O)c([125I])c(C(=O)[O-])c1[125I].[Na+] [Na LOTHALAMATE],Lowest concentration of CM showing a 2+ or 3+ inhibition of 1/500 IgG anti-γ-globulin,[1],28.2 mg/mL
"O=C(NCC(O)CO)c1c(I)c(C(=O)NCC(O)CO)c(I)c(N(CCO)C(=O)CO)c1I (centres unmarked) [OPTIRAY, IOVERSOL]",Lowest concentration of CM showing a 2+ or 3+ inhibition of 1/500 IgG anti-γ-globulin,[1],16.0 mg/mL
same,Net decrease in mean arterial blood pressure,[2]; Monomers (4 ml),decrease (20 ± 1.5) (3) mm Hg
same,Net decrease in mean arterial blood pressure,[2]; Monomers (8 ml),decrease (33 ± 2.8) (3) mm Hg
same,Net decrease in mean arterial blood pressure,[3]; Monomers (8 ml),decrease (22 ± 0.0) (1) mm Hg
"CN(C)CCOC(c1ccccc1)c1ccccc1 [diphenyhydramine, diphenhydramine]",Change in blood pressure (in words),[6]; substance injected by itself,immediate elevation in blood pressure
Na/meglumine iothalamate [MD-76],Stain (mm ± S.E./10),"[7]; Site 1: 50 μl CM, 0 μl saline",7.5 ± 7 mm
same,Stain (mm ± S.E./10),"[7]; Site 2: 40 μl CM, 10 μl saline",10.0 ± 10 mm
same,Stain (mm ± S.E./10),"[7]; Site 3: 30 μl CM, 20 μl saline",17.5 ± 10 mm
same,Stain (mm ± S.E./10),"[7]; Site 4: 20 μl CM, 30 μl saline",62.5 ± 28 mm
same,Stain (mm ± S.E./10),"[7]; Site 5: 10 μl CM, 40 μl saline",115 ± 60 mm
same,Stain,"[7]; controls with nonsensitized serum (3 rats), 0, 25, and 50 μl CM",no stain
meglumine/sodium diatrizoate [Angiovist],Net decrease in mean arterial blood pressure,[2]; Monomers (8 ml),decrease (40 ± 0.0) (1) mm Hg
